Peptide text beside a SMILES is read from it.
Assays:
[1] = In vitro protein binding, rapid equilibrium dialysis; type: in vitro ADME; conditions: beagle, dog, plasma
[2] = as above; type: in vitro ADME; conditions: human, plasma
Plasma stability [3] = type: in vitro ADME, SD rat
Plasma stability [4] = type: in vitro ADME, beagle dog
Plasma stability [5] = type: in vitro ADME, cynomolgus monkey
[6] = tested on: cynomolgus monkey hepatocytes; test: Hepatocyte stability; type: in vitro ADME; conditions: 1.00 μM
human hepatocytes [7] = test: Hepatocyte stability; type: in vitro ADME; conditions: 1.00 μM
rat hepatocytes = test: Metabolite identification in hepatocytes; type: in vitro ADME; conditions: cryopreserved rat hepatocytes, FC-12738 10 μM, 37 °C, 240 min, LC-UV-MS
dog hepatocytes = test: Metabolite identification in hepatocytes; type: in vitro ADME; conditions: cryopreserved dog hepatocytes, FC-12738 10 μM, 37 °C, 240 min, LC-UV-MS
monkey hepatocytes = test: Metabolite identification in hepatocytes; type: in vitro ADME; conditions: cryopreserved monkey hepatocytes, FC-12738 10 μM, 37 °C, 240 min, LC-UV-MS
[8] = Metabolism of FC-12738 in SD rat plasma; type: in vivo
CYP2C9 [9] = molecular target: T1, CYP2C9 (Homo sapiens, UniProt P11712); test: CYP450 inhibition assay; type: in vitro ADME
CYP2C19 = CYP2C19 (Homo sapiens, UniProt P33261); test: CYP450 inhibition assay; type: in vitro ADME
CYP2D6 = CYP2D6 (Homo sapiens, UniProt P10635); test: CYP450 inhibition assay; type: in vitro ADME
CYP3A = test: CYP450 inhibition assay; type: in vitro ADME; conditions: human, pooled human liver microsomes
CYP1A2 = molecular target: T2, CYP1A2 (Homo sapiens, UniProt P05177); test: biochemical; type: in vitro ADME
T2 sequence (P05177 1-516): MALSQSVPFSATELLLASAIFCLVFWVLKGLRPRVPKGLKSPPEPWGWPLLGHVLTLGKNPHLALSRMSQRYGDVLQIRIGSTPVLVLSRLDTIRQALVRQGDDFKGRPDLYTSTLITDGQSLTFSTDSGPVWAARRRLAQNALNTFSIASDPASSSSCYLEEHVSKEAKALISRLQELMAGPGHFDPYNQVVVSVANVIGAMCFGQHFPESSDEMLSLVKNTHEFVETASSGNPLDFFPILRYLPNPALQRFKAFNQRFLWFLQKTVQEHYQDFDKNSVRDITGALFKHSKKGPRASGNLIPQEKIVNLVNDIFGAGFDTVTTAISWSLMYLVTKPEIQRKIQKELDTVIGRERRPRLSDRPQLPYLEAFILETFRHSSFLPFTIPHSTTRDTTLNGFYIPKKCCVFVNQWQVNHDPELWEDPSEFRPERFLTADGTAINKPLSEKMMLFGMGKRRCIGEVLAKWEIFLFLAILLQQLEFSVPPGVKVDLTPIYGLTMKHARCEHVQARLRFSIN

CYP2C9 [10] = molecular target: T1, CYP2C9; test: CYP time-dependent inhibition assay; type: in vitro ADME
CYP3A4 = test: CYP induction assay in human hepatocytes; type: in vitro ADME; conditions: cryopreserved human hepatocytes, three donors, 0.100 to 15.0 μM, 48 h, 37°C
human hepatocytes [11] = test: Concentration change of FC-12738 in the CYP induction assay; type: in vitro ADME; conditions: 24 hours, 37°C
BCRP = BCRP (Homo sapiens, UniProt Q9UNQ0); test: Inhibition of BCRP in Caco-2 cells; type: in vitro ADME
[12] = cutoff IC50 shift >= 1.5-fold, 30 min pre-incubation ± NADPH

T1 sequence (P11712 whole entry): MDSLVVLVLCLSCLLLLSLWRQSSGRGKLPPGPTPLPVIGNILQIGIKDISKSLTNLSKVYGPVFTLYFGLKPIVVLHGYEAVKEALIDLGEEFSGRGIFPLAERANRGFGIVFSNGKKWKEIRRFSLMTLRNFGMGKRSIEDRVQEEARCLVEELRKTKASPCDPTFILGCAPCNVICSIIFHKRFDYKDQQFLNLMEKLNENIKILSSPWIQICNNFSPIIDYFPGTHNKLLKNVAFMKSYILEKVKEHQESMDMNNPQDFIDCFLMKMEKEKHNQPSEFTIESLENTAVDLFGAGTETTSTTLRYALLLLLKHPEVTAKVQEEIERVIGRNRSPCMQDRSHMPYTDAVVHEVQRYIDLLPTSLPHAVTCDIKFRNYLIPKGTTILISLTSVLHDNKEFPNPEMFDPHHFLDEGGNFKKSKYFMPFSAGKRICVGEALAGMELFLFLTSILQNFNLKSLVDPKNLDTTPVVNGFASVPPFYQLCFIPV
Chain of CYP2D6 (P10635 whole entry): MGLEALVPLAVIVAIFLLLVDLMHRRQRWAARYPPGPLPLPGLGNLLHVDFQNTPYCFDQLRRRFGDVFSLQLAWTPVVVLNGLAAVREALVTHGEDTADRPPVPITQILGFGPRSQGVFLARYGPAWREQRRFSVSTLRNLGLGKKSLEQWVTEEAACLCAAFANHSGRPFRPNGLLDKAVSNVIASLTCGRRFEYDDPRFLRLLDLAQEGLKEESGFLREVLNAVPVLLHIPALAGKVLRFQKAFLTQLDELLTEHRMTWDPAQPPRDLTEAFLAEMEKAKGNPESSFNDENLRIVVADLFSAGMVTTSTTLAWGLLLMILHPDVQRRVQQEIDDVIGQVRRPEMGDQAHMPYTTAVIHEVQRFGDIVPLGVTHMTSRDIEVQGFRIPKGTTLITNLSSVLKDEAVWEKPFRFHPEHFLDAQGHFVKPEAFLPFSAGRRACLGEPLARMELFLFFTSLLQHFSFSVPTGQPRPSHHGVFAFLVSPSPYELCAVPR
Chain of BCRP (Q9UNQ0 whole entry): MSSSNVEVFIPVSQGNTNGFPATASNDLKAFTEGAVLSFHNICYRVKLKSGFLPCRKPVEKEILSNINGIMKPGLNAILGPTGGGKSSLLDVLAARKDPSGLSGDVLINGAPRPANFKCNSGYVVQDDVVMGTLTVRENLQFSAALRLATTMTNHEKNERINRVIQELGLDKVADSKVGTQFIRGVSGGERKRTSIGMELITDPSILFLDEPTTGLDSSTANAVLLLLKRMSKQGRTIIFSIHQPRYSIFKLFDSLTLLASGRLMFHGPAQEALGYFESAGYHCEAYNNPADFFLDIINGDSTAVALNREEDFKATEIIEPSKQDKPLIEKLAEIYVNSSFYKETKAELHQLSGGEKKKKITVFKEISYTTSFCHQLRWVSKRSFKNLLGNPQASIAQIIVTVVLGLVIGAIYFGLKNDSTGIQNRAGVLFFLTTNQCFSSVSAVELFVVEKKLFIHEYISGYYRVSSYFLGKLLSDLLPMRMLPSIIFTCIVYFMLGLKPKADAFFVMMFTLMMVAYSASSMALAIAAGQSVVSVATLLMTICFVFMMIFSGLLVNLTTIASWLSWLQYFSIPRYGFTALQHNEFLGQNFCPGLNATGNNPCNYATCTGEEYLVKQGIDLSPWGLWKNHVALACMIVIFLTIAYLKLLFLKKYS
Chain of CYP2C19 (P33261 whole entry): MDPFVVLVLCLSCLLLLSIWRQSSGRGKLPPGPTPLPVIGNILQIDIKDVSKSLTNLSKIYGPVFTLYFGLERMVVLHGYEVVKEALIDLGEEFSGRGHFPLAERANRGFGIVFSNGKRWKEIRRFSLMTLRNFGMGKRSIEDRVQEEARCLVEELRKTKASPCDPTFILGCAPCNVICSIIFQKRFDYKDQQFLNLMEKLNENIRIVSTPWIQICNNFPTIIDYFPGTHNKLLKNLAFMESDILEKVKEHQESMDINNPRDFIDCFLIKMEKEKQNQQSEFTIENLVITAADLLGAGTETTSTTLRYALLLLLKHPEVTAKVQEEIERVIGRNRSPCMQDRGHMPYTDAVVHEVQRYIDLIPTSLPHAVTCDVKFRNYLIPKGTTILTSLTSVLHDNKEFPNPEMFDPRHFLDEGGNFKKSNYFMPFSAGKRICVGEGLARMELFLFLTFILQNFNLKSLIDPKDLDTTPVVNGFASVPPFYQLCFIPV

SMILES: CC(C)[C@@H](NC(=O)[C@H](N)Cc1ccc(O)cc1)C(=O)N[C@H](CC(=O)O)C(=O)N[C@H](CCCCN)C(=O)N[C@H](CCCNC(=N)N)C(=O)O [FC-12738, (D-Tyr)-(D-Val)-(D-Asp)-(D-Lys)-(D-Arg)] (HELM PEPTIDE1{[dY].[dV].[dD].[dK].[dR]}$$$$V2.0)
- fraction unbound at 6 h, 0.2 µM [1]: 0.492
- fraction unbound at 6 h, 2 µM [1]: 0.461
- fraction unbound at 6 h, 10 µM [1]: 0.691
- fraction unbound at 6 h, 0.2 µM [2]: 0.428
- fraction unbound at 6 h, 2 µM [2]: 0.47
- fraction unbound at 6 h, 10 µM [2]: 0.673
- half-life (Plasma stability [3]; SD rat plasma, 2.00 μM, 37.0 °C, up to 120 min): > 6.212 h
- remaining at 10 min, 2 μM (Plasma stability [3]; SD, rat, plasma): 104%
- remaining at 0.5 h, 2 μM (Plasma stability [3]; SD, rat, plasma): 102%
- remaining at 1 h, 2 μM (Plasma stability [3]; SD, rat, plasma): 113%
- remaining at 2 h, 2 μM (Plasma stability [3]; SD, rat, plasma): 104%
- half-life (Plasma stability [4]; beagle dog plasma, 2.00 μM, 37.0 °C, up to 120 min): > 6.212 h
- remaining at 10 min, 2 μM (Plasma stability [4]; beagle, dog, plasma): 106%
- remaining at 0.5 h, 2 μM (Plasma stability [4]; beagle, dog, plasma): 105%
- remaining at 1 h, 2 μM (Plasma stability [4]; beagle, dog, plasma): 106%
- remaining at 2 h, 2 μM (Plasma stability [4]; beagle, dog, plasma): 101%
- half-life (Plasma stability [5]; cynomolgus monkey plasma, 2.00 μM, 37.0 °C, up to 120 min): > 6.212 h
- remaining at 10 min, 2 μM (Plasma stability [5]; monkey, plasma): 105%
- remaining at 0.5 h, 2 μM (Plasma stability [5]; monkey, plasma): 105%
- remaining at 1 h, 2 μM (Plasma stability [5]; monkey, plasma): 105%
- remaining at 2 h, 2 μM (Plasma stability [5]; monkey, plasma): 102%
- intrinsic clearance CLint(hep) ([6]; cryopreserved cynomolgus monkey hepatocytes, 37.0°C, 120 min): < 1.9 μL/min/10^6 cells
- half-life ([6]; cryopreserved cynomolgus monkey hepatocytes, 37.0°C, 120 min, LC-MS/MS): > 6.212 h
- hepatic clearance CLint(liver) ([6]; scaled from cynomolgus monkey hepatocytes): < 6.7 mL/min/kg
- intrinsic clearance CLint(hep) (human hepatocytes [7]; cryopreserved human hepatocytes, 37.0°C, 120 min): < 1.9 μL/min/10^6 cells
- half-life (human hepatocytes [7]; cryopreserved human hepatocytes, 37.0°C, 120 min, LC-MS/MS): > 6.212 h
- hepatic clearance CLint(liver) (human hepatocytes [7]; scaled from human hepatocytes): < 5.2 mL/min/kg
- Relative Abundance (UV%) (rat hepatocytes): 87.56%
- Relative Abundance (UV%) (dog hepatocytes): 80.76%
- Relative Abundance (UV%) (monkey hepatocytes): 89.24%
- Relative MS abundance (%Total) ([8]; male SD rat plasma 0-2 h, IV 2 mg/kg FC-12738 single): 97.10%
- Relative MS abundance (%Total) ([8]; male SD rat plasma 0-4 h, SC 10 mg/kg FC-12738 single): 96.57%
- IC50 (CYP2C9 [9]): > 100 µM
- IC50 (CYP2C19): > 100 µM
- IC50 (CYP2D6): > 100 µM
- IC50 (CYP3A): > 100 µM
- IC50 (CYP1A2): > 100 µM
- Time-dependent inhibition of CYP1A2 (CYP1A2; [12]): no time-dependent inhibition
- IC50 (CYP2C9 [10]): > 100 µM
- Time-dependent inhibition of CYP2C9 (CYP2C9 [10]; [12]): no time-dependent inhibition
- Induction of CYP3A4 (enzyme activity and gene expression) (CYP3A4): not considered as an inducer
- % remaining (human hepatocytes [11]; human hepatocytes Donor 1, 10.0 μM): 69.1%
- % remaining (human hepatocytes [11]; human hepatocytes Donor 2, 15.0 μM): 89.3%
- % remaining (human hepatocytes [11]; human hepatocytes Donor 3, 10.0 μM): 61.0%
- IC50 (BCRP): > 100 µM

From paper doi:10.1101/2023.04.18.537371v1 (bioRxiv, 2023)
